Marks after values point to notes of the source that are not given here.
How the values were obtained:
Format in all cases: in vivo
[1] = test system: Plasmopara viticola; experiment: Test A: grape downy mildew, grape seedlings sprayed after inoculation, visual disease rating; settings: 40 ppm test suspension (asterisk); grape seedlings sprayed 24 h after inoculation with Plasmopara viticola; rating 100 = 100% disease control, 0 = no control relative to the controls
[2] = test system: Phytophthora infestans; settings: 40 ppm test suspension (asterisk); tomato seedlings sprayed 17 h after inoculation with Phytophthora infestans; rating 100 = 100% disease control, 0 = no control relative to the controls
[3] = test system: Phytophthora infestans; settings: 40 ppm test suspension (asterisk); tomato seedlings sprayed the day before inoculation with Phytophthora infestans; rating 100 = 100% disease control, 0 = no control relative to the controls

| Structure (SMILES) | Test A rating (disease control, grape downy mildew) [1] | Test C rating (disease control, tomato late blight) [2] | Test B rating (disease control, tomato late blight) [3] |
| --- | --- | --- | --- |
| Cc1cc(C(F)(F)F)nn1CC(=O)N1CCC(c2nc(C3=NOC(c4c(F)cccc4F)C3)cs2)CN1 (stereo not drawn) [Compound 1, 1-[4-[4-[5-(2,6-difluorophenyl)-4,5-dihydro-3-isoxazolyl]-2-thiazolyl]tetrahydro-1(2H)-pyridazinyl]-2-[5-methyl-3-(trifluoromethyl)-1H-pyrazol-1-yl]ethanone] | 99* % | 99* % | 100* % |
| CC(=O)N1CC(c2nc(C3=NOC(c4c(F)cccc4F)C3)cs2)CCN1C(=O)Cn1nc(C(F)(F)F)cc1C (stereo not drawn) [Compound 2, 1-[2-Acetyl-4-[4-[5-(2,6-difluorophenyl)-4,5-dihydro-3-isoxazolyl]-2-thiazolyl]tetrahydro-1(2H)-pyridazinyl]-2-[5-methyl-3-(trifluoromethyl)-1H-pyrazol-1-yl]ethanone] | 89* % | 98* % | 100* % |
| Cc1cc(C(F)(F)F)nn1CC(=O)N1CCC(c2nc(C3=NOC(c4c(F)cccc4F)C3)cs2)CO1 (stereo not drawn) [Compound 3] | 100* % | 99* % | 100* % |
| Cc1cc(C(F)(F)F)nn1CC(=O)N1CC2CN(c3nc(C4=NOC(c5c(F)cccc5F)C4)cs3)CC2C1 (stereo not drawn) [Compound 4, 1-[5-[4-[5-(2,6-difluorophenyl)-4,5-dihydro-3-isoxazolyl]-2-thiazolyl]hexahydropyrrolol[3,4-c]pyrrol-2(1H)-yl]-2-[5-methyl-3-(trifluoromethyl)-1H-pyrazol-1-yl]ethanone] | 99* % | 99* % | 100* % |

Reference: patent publication US8835427B2, “Fungicidal heterocyclic compounds” (priority 2010, dated 2014)
